Laboratory results: ChEMBL document CHEMBL1201861, “Genomics of Drug Sensitity in Cancer screening data, Wellcome Trust Sanger Institute”

What was measured:
Test in all cases: cells
COLO-800 = type: functional, cell-based, Homo sapiens; conditions: Homo sapiens, COLO-800;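 note: growth inhibition of COLO-800 cells, read out with a cell viability assay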
Description: SANGER: Inhibition of human COLO-800 cell growth in a cell viability assay.

COLO-824 = type: functional, cell-based, Homo sapiens; conditions: Homo sapiens, COLO-824
Description: SANGER: Inhibition of human COLO-824 cell growth in a cell viability assay.

DB = type: functional, cell-based; conditions: Homo sapiens
Description: SANGER: Inhibition of human DB cell growth in a cell viability assay.

DJM-1 = type: functional, cell-based, Homo sapiens; conditions: Homo sapiens, DJM-1;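 note: growth inhibition of human DJM-1 cells, read out by a cell viability assay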
Description: SANGER: Inhibition of human DJM-1 cell growth in a cell viability assay.

DU-145 = type: functional, cell-based, Homo sapiens; conditions: Homo sapiens, DU-145
Description: SANGER: Inhibition of human DU-145 cell growth in a cell viability assay.

EFO-27 = type: functional, cell-based, Homo sapiens; conditions: Homo sapiens, EFO-27;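 note: growth inhibition of EFO-27 cells, read out with a cell viability assay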
Description: SANGER: Inhibition of human EFO-27 cell growth in a cell viability assay.

ES5 = type: functional, cell-based, Homo sapiens; conditions: Homo sapiens, ES5;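 note: growth inhibition of human ES5 cells, read out by a cell viability assay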
EW-11 = type: functional, cell-based, Homo sapiens; conditions: Homo sapiens, EW-11;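 note: growth inhibition of human EW-11 cells, measured with a cell viability assay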
Description: SANGER: Inhibition of human EW-11 cell growth in a cell viability assay.

FaDu = type: functional, cell-based, Homo sapiens; conditions: Homo sapiens, FaDu;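 note: cell viability readout of growth inhibition in FaDu cells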
Description: SANGER: Inhibition of human FADU cell growth in a cell viability assay.

HCC1187 = type: functional, cell-based, Homo sapiens; conditions: Homo sapiens, HCC1187;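 note: growth inhibition of HCC1187 cells, read out with a cell viability assay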
Description: SANGER: Inhibition of human HCC1187 cell growth in a cell viability assay.

HDLM-2 = type: functional, cell-based; conditions: Homo sapiens;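 note: cell viability assay measuring suppression of HDLM-2 proliferation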
Description: SANGER: Inhibition of human HDLM-2 cell growth in a cell viability assay.

HH = type: functional, cell-based; conditions: Homo sapiens
Description: SANGER: Inhibition of human HH cell growth in a cell viability assay.

HuO-3N1 = type: functional, cell-based, Homo sapiens; conditions: Homo sapiens, HuO-3N1;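 note: cell viability readout used to measure how strongly compounds suppress proliferation of human HuO-3N1 cells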
Description: SANGER: Inhibition of human HuO-3N1 cell growth in a cell viability assay.

JVM-3 = type: functional, cell-based; conditions: Homo sapiens;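 note: growth inhibition of human JVM-3 cells, read out with a cell viability assay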
Description: SANGER: Inhibition of human JVM-3 cell growth in a cell viability assay.

K562 = type: functional, cell-based; conditions: Homo sapiens
Description: SANGER: Inhibition of human K-562 cell growth in a cell viability assay.

KY821 = type: functional, cell-based; conditions: Homo sapiens;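 note: growth inhibition of human KY821 cells, read out by a cell viability assay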
KYSE-450 = type: functional, cell-based; conditions: Homo sapiens;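 note: cell growth inhibition measured by a viability assay in human KYSE-450 cells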
Description: SANGER: Inhibition of human KYSE-450 cell growth in a cell viability assay.

L-428 = type: functional, cell-based; conditions: Homo sapiens
Description: SANGER: Inhibition of human L-428 cell growth in a cell viability assay.

LNCaP-Clone-FGC = type: functional, cell-based, Homo sapiens; conditions: Homo sapiens, LNCaP-Clone-FGC
Description: SANGER: Inhibition of human LNCaP-Clone-FGC cell growth in a cell viability assay.

LS-411N = type: functional, cell-based, Homo sapiens; conditions: Homo sapiens, LS-411N
LS-513 = type: functional, cell-based, Homo sapiens; conditions: Homo sapiens, LS-513
Description: SANGER: Inhibition of human LS-513 cell growth in a cell viability assay.

MEL-HO = type: functional, cell-based, Homo sapiens; conditions: Homo sapiens, MEL-HO
Description: SANGER: Inhibition of human MEL-HO cell growth in a cell viability assay.

MHH-PREB-1 = type: functional, cell-based; conditions: Homo sapiens;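 note: cell viability assay measuring inhibition of proliferation of human MHH-PREB-1 cells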
Description: SANGER: Inhibition of human MHH-PREB-1 cell growth in a cell viability assay.

MZ7-mel = type: functional, cell-based, Homo sapiens; conditions: Homo sapiens, MZ7-mel;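 note: growth inhibition of human MZ7-mel cells, measured by a cell viability assay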
NB17 = type: functional, cell-based; conditions: Homo sapiens;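 note: growth inhibition of NB17 cells, read out with a cell viability assay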
Description: SANGER: Inhibition of human NB17 cell growth in a cell viability assay.

NB7 = type: functional, cell-based; conditions: Homo sapiens;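 note: growth inhibition of NB7 cells, read out with a cell viability assay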
Description: SANGER: Inhibition of human NB7 cell growth in a cell viability assay.

NCI-H1648 = type: functional, cell-based, Homo sapiens; conditions: Homo sapiens, NCI-H1648;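 note: cell viability assay measuring inhibition of NCI-H1648 cell growth, from the Sanger screening data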
Description: SANGER: Inhibition of human NCI-H1648 cell growth in a cell viability assay.

NCI-H1651 = type: functional, cell-based, Homo sapiens; conditions: Homo sapiens, NCI-H1651;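 note: Read-out is a cell viability assay, with IC50 expressing inhibition of NCI-H1651 cell growth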
Description: SANGER: Inhibition of human NCI-H1651 cell growth in a cell viability assay.

NCI-H1770 = type: functional, cell-based; conditions: Homo sapiens;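 note: growth inhibition of NCI-H1770 cells determined with a viability readout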
Description: SANGER: Inhibition of human NCI-H1770 cell growth in a cell viability assay.

NCI-H1993 = type: functional, cell-based, Homo sapiens; conditions: Homo sapiens, NCI-H1993;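 note: growth inhibition of the cancer cell line, assessed with a cell viability assay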
Description: SANGER: Inhibition of human NCI-H1993 cell growth in a cell viability assay.

NCI-H2342 = type: functional, cell-based; conditions: Homo sapiens;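 note: growth inhibition of the cancer cell line, determined with a cell viability assay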
Description: SANGER: Inhibition of human NCI-H2342 cell growth in a cell viability assay.

NCI-H810 = type: functional, cell-based, Homo sapiens; conditions: Homo sapiens, NCI-H810;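 note: IC50 reflects inhibition of cancer cell line growth, read out with a cell viability assay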
Description: SANGER: Inhibition of human NCI-H810 cell growth in a cell viability assay.

NOMO-1 = type: functional, cell-based; conditions: Homo sapiens;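 note: growth inhibition of human NOMO-1 cells measured by a cell viability assay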
Description: SANGER: Inhibition of human NOMO-1 cell growth in a cell viability assay.

NY = type: functional, cell-based, Homo sapiens; conditions: Homo sapiens, NY
Description: SANGER: Inhibition of human NY cell growth in a cell viability assay.

OCI-AML2 = type: functional, cell-based; conditions: Homo sapiens;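 note: growth inhibition of OCI-AML2 cells, read out with a cell viability assay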
Description: SANGER: Inhibition of human OCI-AML2 cell growth in a cell viability assay.

OVCAR-8 = type: functional, cell-based, Homo sapiens; conditions: Homo sapiens, OVCAR-8;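 note: growth inhibition of human OVCAR-8 cells, read out by a cell viability assay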
Description: SANGER: Inhibition of human OVCAR-8 cell growth in a cell viability assay.

PSN1 = type: functional, cell-based, Homo sapiens; conditions: Homo sapiens, PSN1;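 note: suppression of growth of human PSN1 cells, read out by a cell viability assay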
Description: SANGER: Inhibition of human PSN1 cell growth in a cell viability assay.

RPMI-2650 = type: functional, cell-based, Homo sapiens; conditions: Homo sapiens, RPMI-2650
Description: SANGER: Inhibition of human RPMI-2650 cell growth in a cell viability assay.

RVH-421 = type: functional, cell-based, Homo sapiens; conditions: Homo sapiens, RVH-421
Description: SANGER: Inhibition of human RVH-421 cell growth in a cell viability assay.

SNU-387 = type: functional, cell-based, Homo sapiens; conditions: Homo sapiens, SNU-387
Description: SANGER: Inhibition of human SNU-387 cell growth in a cell viability assay.

SAOS-2 = type: functional, cell-based, Homo sapiens; conditions: Homo sapiens, SAOS-2;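 note: growth inhibition of human Saos-2 cells determined by a cell viability assay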
Description: SANGER: Inhibition of human Saos-2 cell growth in a cell viability assay.

A 172 = type: functional, cell-based, Homo sapiens; conditions: Homo sapiens, A 172;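 note: growth inhibition of A172 cells, measured with a cell viability readout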
ATN-1 = type: functional, cell-based; conditions: Homo sapiens;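 note: growth inhibition of human ATN-1 cells, read out with a cell viability assay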
Description: SANGER: Inhibition of human ATN-1 cell growth in a cell viability assay.

ASPC1 = type: functional, cell-based, Homo sapiens; conditions: Homo sapiens, ASPC1;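 note: growth inhibition of AsPC-1 cells, read out with a cell viability assay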
Description: SANGER: Inhibition of human AsPC-1 cell growth in a cell viability assay.

BB30-HNC = type: functional, cell-based, Homo sapiens; conditions: Homo sapiens, BB30-HNC;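 note: growth inhibition of the cultured cell line, read out by a cell viability assay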
Description: SANGER: Inhibition of human BB30-HNC cell growth in a cell viability assay.

CAL-72 = type: functional, cell-based, Homo sapiens; conditions: Homo sapiens, CAL-72;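 note: cell viability assay measuring inhibition of proliferation in the CAL-72 cell line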
Description: SANGER: Inhibition of human CAL-72 cell growth in a cell viability assay.

TE-5 = type: functional, cell-based, Homo sapiens; conditions: Homo sapiens, TE-5;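 note: inhibition of cell growth, read out by a cell viability assay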
Description: SANGER: Inhibition of human TE-5 cell growth in a cell viability assay.

TE-9 = type: functional, cell-based, Homo sapiens; conditions: Homo sapiens, TE-9;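 note: cell growth inhibition, measured with a cell viability readout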
Description: SANGER: Inhibition of human TE-9 cell growth in a cell viability assay.

TK-10 = type: functional, cell-based, Homo sapiens; conditions: Homo sapiens, TK-10;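 note: growth inhibition of TK-10 cells, read out in a cell viability assay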
Description: SANGER: Inhibition of human TK10 cell growth in a cell viability assay.

UACC-257 = type: functional, cell-based, Homo sapiens; conditions: Homo sapiens, UACC-257
Description: SANGER: Inhibition of human UACC-257 cell growth in a cell viability assay.

UACC-62 = type: functional, cell-based, Homo sapiens; conditions: Homo sapiens, UACC-62;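 note: growth inhibition of human UACC-62 cells, read out by a cell viability assay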
Description: SANGER: Inhibition of human UACC-62 cell growth in a cell viability assay.

UMUC3 = type: functional, cell-based, Homo sapiens; conditions: Homo sapiens, UMUC3;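 note: growth inhibition of human UM-UC-3 cells, read out with a cell viability assay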
Description: SANGER: Inhibition of human UM-UC-3 cell growth in a cell viability assay.

VMRC-RCZ = type: functional, cell-based; conditions: Homo sapiens;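 note: growth inhibition measured with a cell viability assay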

Molecule CN(C)C/C=C/C(=O)Nc1cc2c(Nc3ccc(F)c(Cl)c3)ncnc2cc1O[C@H]1CCOC1 [AFATINIB] has an IC50 (COLO-800) of over 0.5 µM, an IC50 (COLO-824) of over 0.5 µM and an IC50 (DB) of over 0.5 µM. The IC50 (DJM-1) was over 0.5 µM, the IC50 (DU-145) was 0.448 µM and the IC50 (EFO-27) was 0.0518 µM. It also gave an IC50 (ES5) of over 0.5 µM, an IC50 (EW-11) of over 0.5 µM and an IC50 (FaDu) of over 0.5 µM. The IC50 (HCC1187) was over 0.5 µM, the IC50 (HDLM-2) was 0.00572 µM and the IC50 (HH) was over 0.5 µM. It also gave an IC50 (HuO-3N1) of over 0.5 µM, an IC50 (JVM-3) of over 0.5 µM and an IC50 (K562) of over 0.5 µM. For the same molecule, the IC50 (KY821) was 0.0206 µM, the IC50 (KYSE-450) was 0.0598 µM and the IC50 (L-428) was over 0.5 µM. It also gave an IC50 (LNCaP-Clone-FGC) of over 0.5 µM, an IC50 (LS-411N) of over 0.5 µM and an IC50 (LS-513) of over 0.5 µM. It also gave an IC50 (MEL-HO) of over 0.5 µM, an IC50 (MHH-PREB-1) of over 0.5 µM and an IC50 (MZ7-mel) of over 0.5 µM. It also gave an IC50 (NB17) of over 0.5 µM, an IC50 (NB7) of over 0.5 µM and an IC50 (NCI-H1648) of 0.442 µM. The IC50 (NCI-H1651) was over 0.5 µM, the IC50 (NCI-H1770) was 0.103 µM and the IC50 (NCI-H1993) was over 0.5 µM. For the same molecule, the IC50 (NCI-H2342) was over 0.5 µM, the IC50 (NCI-H810) was over 0.5 µM and the IC50 (NOMO-1) was over 0.5 µM. For the same molecule, the IC50 (NY) was over 0.5 µM, the IC50 (OCI-AML2) was over 0.5 µM and the IC50 (OVCAR-8) was over 0.5 µM. For the same molecule, the IC50 (PSN1) was over 0.5 µM, the IC50 (RPMI-2650) was over 0.5 µM and the IC50 (RVH-421) was over 0.5 µM. For the same molecule, the IC50 (SNU-387) was over 0.5 µM, the IC50 (SAOS-2) was over 0.5 µM and the IC50 (A 172) was over 0.5 µM. It also gave an IC50 (ATN-1) of over 0.5 µM, an IC50 (ASPC1) of over 0.5 µM and an IC50 (BB30-HNC) of 0.166 µM. It also gave an IC50 (CAL-72) of over 0.5 µM, an IC50 (TE-5) of over 0.5 µM and an IC50 (TE-9) of over 0.5 µM. It also gave an IC50 (TK-10) of 0.267 µM, an IC50 (UACC-257) of over 0.5 µM and an IC50 (UACC-62) of over 0.5 µM. For the same molecule, the IC50 (UMUC3) was over 0.5 µM and the IC50 (VMRC-RCZ) was over 0.5 µM.

With O=C(NOCC1CC1)c1ccc(F)c(F)c1Nc1ccc(I)cc1Cl [CI-1040] the IC50 (COLO-800) was over 10 µM, the IC50 (COLO-824) was over 10 µM and the IC50 (DB) was 2.59 µM. For the same molecule, the IC50 (DJM-1) was over 10 µM, the IC50 (DU-145) was over 10 µM and the IC50 (EFO-27) was 4.79 µM. It also gave an IC50 (ES5) of over 10 µM, an IC50 (EW-11) of over 10 µM and an IC50 (FaDu) of 5.56 µM. It also gave an IC50 (HCC1187) of over 10 µM, an IC50 (HDLM-2) of over 10 µM and an IC50 (HH) of 4.42 µM. It also gave an IC50 (HuO-3N1) of over 10 µM, an IC50 (JVM-3) of over 10 µM and an IC50 (K562) of 8.84 µM. For the same molecule, the IC50 (KY821) was 0.379 µM, the IC50 (KYSE-450) was over 10 µM and the IC50 (L-428) was over 10 µM. It also gave an IC50 (LNCaP-Clone-FGC) of over 10 µM, an IC50 (LS-411N) of 1.41 µM and an IC50 (LS-513) of 1.45 µM. It also gave an IC50 (MEL-HO) of 0.277 µM, an IC50 (MHH-PREB-1) of 4.12 µM and an IC50 (MZ7-mel) of 0.263 µM. For the same molecule, the IC50 (NB17) was over 10 µM, the IC50 (NB7) was 2.34 µM and the IC50 (NCI-H1648) was over 10 µM. It also gave an IC50 (NCI-H1651) of over 10 µM, an IC50 (NCI-H1770) of over 10 µM and an IC50 (NCI-H1993) of over 10 µM. It also gave an IC50 (NCI-H2342) of over 10 µM, an IC50 (NCI-H810) of over 10 µM and an IC50 (NOMO-1) of 0.257 µM. The IC50 (NY) was over 10 µM, the IC50 (OCI-AML2) was over 10 µM and the IC50 (OVCAR-8) was over 10 µM. The IC50 (PSN1) was 0.962 µM, the IC50 (RPMI-2650) was over 10 µM and the IC50 (RVH-421) was 0.972 µM. The IC50 (SNU-387) was over 10 µM, the IC50 (SAOS-2) was over 10 µM and the IC50 (A 172) was 6.49 µM. The IC50 (ATN-1) was over 10 µM, the IC50 (ASPC1) was 5.37 µM and the IC50 (BB30-HNC) was over 10 µM. It also gave an IC50 (CAL-72) of over 10 µM, an IC50 (TE-5) of 8.42 µM and an IC50 (TE-9) of over 10 µM. It also gave an IC50 (TK-10) of 6.33 µM, an IC50 (UACC-257) of 0.965 µM and an IC50 (UACC-62) of over 10 µM. It also gave an IC50 (UMUC3) of 5.18 µM and an IC50 (VMRC-RCZ) of over 10 µM.

Work on COc1ccc(C2=N[C@@H](c3ccc(Cl)cc3)[C@@H](c3ccc(Cl)cc3)N2C(=O)N2CCNC(=O)C2)c(OC(C)C)c1 [NUTLIN-3] yielded an IC50 (COLO-800) of over 8 µM, an IC50 (COLO-824) of over 8 µM and an IC50 (DB) of over 8 µM. The IC50 (DJM-1) was over 8 µM, the IC50 (DU-145) was over 8 µM and the IC50 (EFO-27) was over 8 µM. The IC50 (ES5) was over 8 µM, the IC50 (EW-11) was over 8 µM and the IC50 (FaDu) was over 8 µM. For the same molecule, the IC50 (HCC1187) was over 8 µM, the IC50 (HDLM-2) was over 8 µM and the IC50 (HH) was over 8 µM. It also gave an IC50 (HuO-3N1) of over 8 µM, an IC50 (JVM-3) of 2.59 µM and an IC50 (K562) of over 8 µM. The IC50 (KY821) was over 8 µM, the IC50 (KYSE-450) was over 8 µM and the IC50 (L-428) was over 8 µM. It also gave an IC50 (LNCaP-Clone-FGC) of 2.64 µM, an IC50 (LS-411N) of over 8 µM and an IC50 (LS-513) of 6.79 µM. It also gave an IC50 (MEL-HO) of 5.86 µM, an IC50 (MHH-PREB-1) of over 8 µM and an IC50 (MZ7-mel) of over 8 µM. For the same molecule, the IC50 (NB17) was 4.32 µM, the IC50 (NB7) was over 8 µM and the IC50 (NCI-H1648) was over 8 µM. The IC50 (NCI-H1651) was over 8 µM, the IC50 (NCI-H1770) was over 8 µM and the IC50 (NCI-H1993) was over 8 µM. The IC50 (NCI-H2342) was over 8 µM, the IC50 (NCI-H810) was over 8 µM and the IC50 (NOMO-1) was over 8 µM. The IC50 (NY) was over 8 µM, the IC50 (OCI-AML2) was over 8 µM and the IC50 (OVCAR-8) was over 8 µM. It also gave an IC50 (PSN1) of over 8 µM, an IC50 (RPMI-2650) of 7.94 µM and an IC50 (RVH-421) of 6.42 µM. The IC50 (SNU-387) was over 8 µM, the IC50 (SAOS-2) was over 8 µM and the IC50 (A 172) was 2.68 µM. The IC50 (ATN-1) was over 8 µM, the IC50 (ASPC1) was over 8 µM and the IC50 (BB30-HNC) was over 8 µM. It also gave an IC50 (CAL-72) of over 8 µM, an IC50 (TE-5) of over 8 µM and an IC50 (TE-9) of over 8 µM. The IC50 (TK-10) was over 8 µM, the IC50 (UACC-257) was over 8 µM and the IC50 (UACC-62) was over 8 µM. The IC50 (UMUC3) was over 8 µM and the IC50 (VMRC-RCZ) was over 8 µM.
